Measurements: patent publication US11530246B2, “Regulated synthetic gene expression systems” (TRUSTEES OF BOSTON UNIVERSITY, priority 2019, dated 2022)
Entries after “also recorded” stand apart in the source; their conditions may differ.

Legend:
ZF-responsive promoter [1] = test: Dual-drug regulated IL4 and CD19-CAR expression in CD4+ primary human T cells; format: cell-based
Excerpt: (see e.g., FIG. 14A-14B).

ZF-responsive promoter [2] = test: Activation and tunable deactivation of a fluorescent protein using ERT2 and SMASh domains, Jurkat; format: cell-based, human
Description: Inducible synthetic transcriptional activation and tunable deactivation of a fluorescent protein in human cell lines using ERT2 and SMASh domains: Three Jurkat T cell lines were tested: (1) ZF-p65-ERT2 (no SMASh, see e.g., FIG. 4); (2) ZF-p65-ERT2-SMASh (C-terminal SMASh); and (3) SMASh-ZF-p65-ERT2 (N-terminal SMASh) (see e.g., FIG. 16A). […] Absence of a SMASh-responsive small molecule (grazoprevir) for 12 days led to equivalent, slow deactivation of the reporter to baseline levels. […] This rapid deactivation of the reporter was compared to the condition lacking the SMASh domain, which led to equivalent slow deactivation as in the “absence of grazoprevir” condition (see e.g., FIG. 16B).

ZF-responsive promoter [3] = test: 4OHT-inducible transcriptional activation of a fluorescent protein using ERT2 domain, Jurkat; format: cell-based, human
Excerpt: ERT2 nuclear translocation domain, which is responsive to a small molecule (4-hydroxytamoxifen=4OHT), can be used to regulate a synTF as described herein (see e.g., Indra et al. Nucleic Acids Res (1999)). The human estrogen receptor (ER) contains a ligand responsive domain that, when fused to other protein domains, can yield ligand-dependent control over activity. The domain naturally associates with cytoplasmic factors in the cell in the absence of cognate ligands, effectively sequestering itself in the cytoplasm. Binding of cognate ligands, such as estrogen or other steroid hormone derivatives, cause a conformational change to the receptor that allow dissociation from the cytoplasmic complexes and expose a nuclear localization signal, permitting translocation into the nucleus.
Subsequently, the administration of 4OHT can allow conditional nuclear translocation of the synTF, allowing synTF functionality in the cellular nucleus (see e.g., FIG. 4).
Output fluorescence was measured as a function of several different 4OHT treatment concentrations as indicated (dose response; see e.g., FIG. 8A).

ZF-responsive promoter [4] = test: Inducible synthetic transcriptional repression of a fluorescent protein, HEK293; format: cell-based, human; conditions: compared to untreated
Description: Tunable gene silencing can also be achieved using small molecule inducible synTFs. Inducible synTFs were engineered that were capable of repressing gene expression. The responsive promoter was modified to constitutively express a fluorescent output. The p65 activation domain was replaced with a KRAB repression domain (human-derived silencer), and the same ZF-drug pairs were utilized as the synTF activators. Inducibility profiles were determined for each of the three inducible synTF repressors in HEK cell lines, and there was strong silencing of reporter expression over time in drug-treated lines relative to untreated cell lines (see e.g., FIG. 11A-11B, 12A-12C).

ZF-responsive promoter [5] = test: Inducible repression of a fluorescent protein using ERT2 and SMASh domains, Jurkat; format: cell-based, human; conditions: 6 days; KRAB-, HP1a-, EED-ZF-ERT2-SMASh lines
Description: Inducible synthetic transcriptional repression of a fluorescent protein in human cell lines using […] domains: Three Jurkat T cell lines were tested: (1) KRAB-[…] (3) […]. […] Absence of a SMASh-responsive small molecule (GZV) in the negative control led to significant “leaky” repression in the absence of 4OHT (see e.g., FIG. 18).

ZF-responsive promoter [6] = test: Small molecule inducible synTF activation of fluorescent reporter in HEK293 and Jurkat cell lines; format: cell-based, human; conditions: both HEK293 and Jurkat cell lines; compared to untreated
Excerpt: Output fluorescence as a function of several different small molecule (e.g., ABA, 4OHT, or grazoprevir) treatment concentrations is also indicated here.
Inducible synTFs were first characterized using GFP (or another detectable marker such as mCherry) as the reporter. The whole system was introduced into Jurkat T cells via lentiviral transduction with multiplicity of infection of 25 to ensure high efficiency, quantifying viral copy number (VCN) with qPCR. To characterize the inducible synTF controllers, cells at 5×10^4 cells each in 96-well plates were inoculated with lentivirus, and eight different drug concentrations were added spanning three orders of magnitude (e.g., GZV 0-10 μM, 4OHT 0-1 μM), and GFP expression levels can be quantified with flow cytometry (see e.g., FIG. 10A-10D). Gene expression levels can be normalized to VCN. From these dose-responses, the dynamic range and threshold of activation can be defined. Since the single vector design can lack a selection marker, transduction efficiency was assumed to be equal to the percentage of GFP positive cells after induction by 4OHT or GZV.
Tunable gene activation was achieved using small molecule inducible synTFs. Inducibility profiles were determined for each of the three inducible synTF activators, in both HEK293 and Jurkat cell lines. The reporter expression was evaluated across time and varying drug concentrations. Day 4 represented the highest levels of expression that were assayed, indicating strong inducible expression in drug-treated lines relative to untreated cell lines (see e.g., FIG. 10A-10D).

ZF-responsive promoter [7] = test: Tunable activation of a fluorescent protein by co-administered 4OHT and GZV, ERT2 and SMASh domains, Jurkat; format: cell-based, human; conditions: co-administration of varying 4OHT and GZV for 4 days
Description: Tunable synthetic transcriptional activation of a fluorescent protein in human cell lines using ERT2 and SMASh domains: Two Jurkat T cell lines were tested: (1) ZF-p65-ERT2-SMASh (C-terminal SMASh) and (2) SMASh-ZF-p65-ERT2 (N-terminal SMASh).

ZF-responsive promoter [8] = test: ABA-inducible transcriptional activation of a fluorescent protein using ABI/PYL domains, Jurkat; format: cell-based, human
Excerpt: ABI/PYL induced proximity domains that are responsive to a small molecule (abscisic acid=ABA) can be used to regulate a synTF as described herein (see e.g., Liang et al. Sci Signal, 2011). The ABA-insensitive 1 (ABI1) and PYR1-like (PYL) domains originating form Arabidopsis thaliana have complementary surfaces that can conditionally interact when coordinated by the small molecule abscisic acid (ABA). ABA is a plant hormone that is naturally present at low levels within the human diet, and is subsequently presumed to be a safe small molecule for human administration.
Subsequently, the administration of ABA can allow conditional dimerization between the ABI1 and PYL subunits, allowing the ZF and effector domains to remain locally coupled and retaining synTF functionality (see e.g., FIG. 3).
Output fluorescence was measured as a function of several different ABA treatment concentrations as indicated (dose response; see e.g., FIG. 7A).

[9] = test system: CD19 antigen-presenting target cells; test: Co-culture of induced CD19-CAR primary T cells with CD19 antigen-presenting target cells, cytokine production; format: cell-based, human
Excerpt: (§1) Output fluorescence as a function of several different grazoprevir treatment concentrations is also indicated here. […] Cytokine production as a function of several different grazoprevir treatment concentrations is also indicated here (see e.g., FIG. 13A-13D).
(§2) Inducible synTFs can regulate […] expression in primary cells. The grazoprevir-inducible synTF was used to control expression of a CD19-CAR in primary CD4+ cells. […] Such results highlight that the ability to reliably control expression of outputs from therapeutic, thus controlling their functionalities in increasingly complex settings (see e.g., FIG. 13A-13D).

[10] = commonly taken at 100 mg/day for up to 12 weeks; cited from earlier work
ZF-responsive promoter [11] = test: Grazoprevir-inducible transcriptional activation of a fluorescent protein using NS3, Jurkat; format: cell-based, human
Excerpt: Non-structural protein 3 (NS3) domain can be used for small molecule regulated control over synTF activity (see e.g., Lin et al. PNAS (2008)). The non-structural protein 3 (NS3) is a serine protease originating from the hepatitis C virus and is naturally capable of self-excision from expressed proteins.
Subsequently, the administration of one of these small molecules—e.g. grazoprevir—can prevent self-excision of NS3 from the fusion protein, allowing the ZF and effector domains to remain locally coupled and retaining synTF functionality.
In the presence of a small molecule, the NS3 protease activity is inhibited and the fusion protein complex is stabilized, permitting the transcription factor to regulate expression of an output gene from a responsive promoter (see e.g., FIG. 5A-5C).
Output fluorescence was measured as a function of several different grazoprevir treatment concentrations as indicated (dose response) (see e.g., FIG. 9A).

ZF-responsive promoter [12] = test: Grazoprevir-inducible transcriptional repression of a fluorescent protein, HEK293 and Jurkat; format: cell-based, human; conditions: compared to untreated
ZF-responsive promoter [13] = test: Inducible activation of CD19-CAR in CD4+ primary human T cells; format: cell-based
Excerpt: as §1, §2

ZF-responsive promoter [14] = test: Inducible activation of IL10 in Jurkat T cell lines, double or single lentiviral vector; format: cell-based, human; conditions: 1 uM GZV for 2 days
Excerpt: This inducible activation can be achieved through the delivery of separate lentiviral cassettes for NS3-synTF expression and IL10 production (“double lentiviral vector”), or through the delivery of a single lentiviral cassette expressing the NS3-synTF as well as regulating IL10 production (see e.g., FIG. 15A-15C).
A single lentiviral vector was engineered that was capable of expressing a grazoprevir-inducible synTF that would in turn regulate expression of IL-10. The size of this entire insert including expression elements was 3.5 kB, which is minimal and […] the total payload packaging limits of certain vectors.

[15] = compared to untreated cell line

CC/C(=C(\c1ccc(O)cc1)c1ccc(OCCN(C)C)cc1)c1ccccc1 [4OHT, 4-hydroxytamoxifen]
IL4 expression (ZF-responsive promoter [1]; ERT2-synTF): expression and secretion of IL4 cytokine
fluorescent protein on administration of 4OHT (ZF-responsive promoter [2]; 4 days, all three Jurkat lines): temporal activation of a fluorescent protein
fluorescent protein on removal of 4OHT (ZF-responsive promoter [2]; removal from days 6-16, all cell lines): temporal deactivation of the fluorescent protein
fluorescent protein output on administration of small molecule (ZF-responsive promoter [3]; [15]): temporal activation of a fluorescent protein output
fluorescent protein output on removal of small molecule (ZF-responsive promoter [3]; removal after four days): temporal de-activation of a fluorescent protein output
fluorescent protein output, synTF with repressor effector domain (ZF-responsive promoter [4]): temporal silencing of a fluorescent protein output
fluorescent protein on administration of 4OHT, repressor synTFs (ZF-responsive promoter [5]): temporal repression of a fluorescent protein
fluorescent protein output on administration of small molecule (ZF-responsive promoter [6]): temporal activation of a fluorescent protein output
level of fluorescent protein activation (ZF-responsive promoter [7]): maximal activation

CC1=CC(=O)CC(C)(C)[C@@]1(O)/C=C/C(C)=C\C(=O)O [ABA, abscisic acid]
fluorescent protein output, synTF with repressor effector domain (ZF-responsive promoter [4]): temporal silencing of a fluorescent protein output
fluorescent protein output on administration of small molecule (ZF-responsive promoter [8]; [15]): temporal activation of a fluorescent protein output
fluorescent protein output on removal of small molecule (ZF-responsive promoter [8]; removal after four days): temporal de-activation of a fluorescent protein output
fluorescent protein output on administration of small molecule (ZF-responsive promoter [6]): temporal activation of a fluorescent protein output

C=C[C@@H]1C[C@]1(NC(=O)[C@@H]1C[C@@H]2CN1C(=O)[C@H](C(C)(C)C)NC(=O)O[C@@H]1C[C@H]1CCCCCc1nc3ccc(OC)cc3nc1O2)C(=O)NS(=O)(=O)C1CC1 [grazoprevir]
T-cell activation, cytokine production (IFNgamma, IL-2) [9]: T-cell activation, measured by enhanced production of cytokines; also recorded: dose-dependent production of IFNgamma and IL-2 cytokines
CD19-CAR expression in dual-drug context (ZF-responsive promoter [1]; orthogonal ZF-responsive promoter): regulated activation of a fluorescently-tagged chimeric antigen receptor (CD19-CAR) protein
safety profile [10]: exceptional safety profile
reporter deactivation with SMASh-responsive small molecule (ZF-responsive promoter [2]; grazoprevir for 12 days after 4OHT removal): fast deactivation of the reporter to the baseline levels
fluorescent protein output, synTF with repressor effector domain (ZF-responsive promoter [4]): temporal silencing of a fluorescent protein output
fluorescent protein output on administration of small molecule (ZF-responsive promoter [11]; [15]): temporal activation of a fluorescent protein output
fluorescent protein output on removal of small molecule (ZF-responsive promoter [11]; removal after four days): temporal de-activation of a fluorescent protein output
fluorescent protein output, synTF with repressor effector domain (ZF-responsive promoter [12]): temporal silencing of a fluorescent protein output
fluorescent protein output on administration of small molecule (ZF-responsive promoter [6]): temporal activation of a fluorescent protein output
CD19-CAR expression (ZF-responsive promoter [13]; CD4+ primary human T cells, several grazoprevir concentrations over time): temporal activation of a fluorescently-tagged chimeric antigen receptor (CD19-CAR) protein; also recorded: dose-dependent expression of synTF
CD19-CAR fold induction (ZF-responsive promoter [13]; day 3, highest concentration): strong fold induction
IL10 expression (ZF-responsive promoter [14]): temporal activation of a cytokine (IL10); also recorded: strong induced expression of IL-10
level of fluorescent protein activation (ZF-responsive promoter [7]): little-to-no activation
